Test results: paper PMC7799360, “Reprogramming immunosuppressive myeloid cells facilitates immunotherapy for colorectal cancer” (EMBO Molecular Medicine, 2020)

What was measured:
ADRA1D = target: T1, ADRA1D (Homo sapiens, UniProt P25100); assay: GPCR calcium flux assay; format: cell-based
T1 construct: Pharmaron (Beijing, China) performed the assay

HRH1 = target: T2, HRH1 (Homo sapiens, UniProt P35367); assay: GPCR calcium flux assay; format: cell-based
T2 construct: Pharmaron (Beijing, China), contract laboratory
T2 sequence (P35367 whole entry, species assumed): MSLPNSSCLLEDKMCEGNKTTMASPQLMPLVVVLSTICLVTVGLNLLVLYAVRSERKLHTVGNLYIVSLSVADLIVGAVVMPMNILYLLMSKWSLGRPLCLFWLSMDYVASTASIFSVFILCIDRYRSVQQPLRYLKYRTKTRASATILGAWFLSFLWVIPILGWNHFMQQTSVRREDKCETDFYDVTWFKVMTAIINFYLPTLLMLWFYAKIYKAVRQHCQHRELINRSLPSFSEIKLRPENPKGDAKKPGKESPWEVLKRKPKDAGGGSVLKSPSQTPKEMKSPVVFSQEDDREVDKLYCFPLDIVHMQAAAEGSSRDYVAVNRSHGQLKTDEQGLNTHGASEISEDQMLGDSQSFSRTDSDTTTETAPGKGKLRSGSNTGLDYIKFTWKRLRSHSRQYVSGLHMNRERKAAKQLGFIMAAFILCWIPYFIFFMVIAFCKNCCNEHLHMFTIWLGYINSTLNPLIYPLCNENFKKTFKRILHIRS

[1] = 14-day repeat-dose toxicity study in Sprague Dawley rats; format: in vivo; details: for Nasal cavity: Normal: animals normal/examined
Experimental: (three males and three females). […]
orally administrated once daily for 14 days. Abnormal behaviors and mortality
were observed every day and b ody weight was recorded every three days.
Animals were sacrificed on day 15, and blood parameters and organ
morphology were recorded. […]

Pan02 tumors = assay: Pan02 pancreatic cancer model in C57BL/6 mice; format: in vivo, mouse; details: Pan02, C57BL/6 mice, 75 mg/kg p.o. daily
Experimental: Syngeneic mouse tumor‐bearing models were established as described previously (Tan et al., 2018). Tumor cells (5 × 10^5 ‐ 2 × 10^6) were suspended in 100 μl PBS and implanted subcutaneously into the flank of mice. Mice were randomized into different treatment groups when tumor volumes reached 100‐200 mm^3. V = L×W^2 × 0.52, where L is the longest diameter, and W is the shortest diameter. Tumor size and body weight were recorded every second or third day. Mouse survival was analyzed using the Kaplan–Meier method.
Single agent or combination treatment was designed as follows: TP‐16 (37.5, 75, 150 mg/kg) or celecoxib (100 mg/kg) was formulated in 0.5% carboxymethylcellulose sodium (CMC‐Na, Sangon Biotech, Shanghai, China) and administered via oral gavage daily. In vivo anti‐PD1 antibody (clone RMP1‐14, BioXCell, West Lebanon, NH, USA) and rat IgG2a isotype control (clone 2A3, BioXCell) were diluted in sterile PBS and administered intraperitoneally at a dose of 50 μg twice weekly.

STAT3 and AKT signaling = assay: Western blot of p-STAT3 and p-AKT in bone marrow-derived macrophages; format: cell-based, mouse; details: BMMs, IL-4 20 ng/ml + 100 nM PGE2, 10 μM TP-16
Experimental: Briefly, cells and tumor tissues were lysed with radio immunoprecipitation assay buffer containing phosphatase and protease inhibitor cocktail (MedChemExpress, Monmouth Junction, NJ, USA). A total of 30‐80 μg of normalized total proteins from lysates were run on 6‐10% SDS‐polyacrylamide gels. The proteins transferred from gels to nitrocellulose membranes (Millipore, Billerica, MA, USA) were incubated with primary antibodies overnight at 4°C, washed, and incubated with secondary antibodies for 1 h at room temperature. Visual signals were detected using the LI‐COR Odyssey Infrared Imaging System (LI‐COR Biosciences, Lincoln, NE). Mouse protein primary antibodies used for Western blotting were listed as follows: COX2 (1:1000 dilution, 12282, CST), p‐Stat3 (1:2000 dilution, Tyr^705, 9145, CST), Stat3 (1:1000 dilution, 9139, CST), p‐Akt (1:2000 dilution, Ser^473, 4060, CST), Akt (1:1000 dilution, 9272, CST), Arg‐1 (1:100 dilution, 16001, Proteintech, Rosemont, IL), and GAPDH (1:10000 dilution, Ab181602, Abcam).

AODRA1 = AODRA1 (Homo sapiens, UniProt P30542); assay: LANCE Ultra cAMP assay
Sequence of AODRA1 (P30542 whole entry): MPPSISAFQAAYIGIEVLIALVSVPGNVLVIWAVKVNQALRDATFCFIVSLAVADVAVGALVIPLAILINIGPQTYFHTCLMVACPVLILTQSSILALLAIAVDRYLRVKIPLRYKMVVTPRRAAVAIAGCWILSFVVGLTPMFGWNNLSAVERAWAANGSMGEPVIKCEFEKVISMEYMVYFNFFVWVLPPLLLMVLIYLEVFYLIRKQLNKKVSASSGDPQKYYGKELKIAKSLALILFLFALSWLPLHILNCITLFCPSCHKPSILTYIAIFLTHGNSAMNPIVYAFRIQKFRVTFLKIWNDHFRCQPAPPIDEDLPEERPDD

DRD2 = DRD2 (Homo sapiens, UniProt P14416); assay: LANCE Ultra cAMP assay
Sequence of DRD2 (P14416 whole entry, species assumed): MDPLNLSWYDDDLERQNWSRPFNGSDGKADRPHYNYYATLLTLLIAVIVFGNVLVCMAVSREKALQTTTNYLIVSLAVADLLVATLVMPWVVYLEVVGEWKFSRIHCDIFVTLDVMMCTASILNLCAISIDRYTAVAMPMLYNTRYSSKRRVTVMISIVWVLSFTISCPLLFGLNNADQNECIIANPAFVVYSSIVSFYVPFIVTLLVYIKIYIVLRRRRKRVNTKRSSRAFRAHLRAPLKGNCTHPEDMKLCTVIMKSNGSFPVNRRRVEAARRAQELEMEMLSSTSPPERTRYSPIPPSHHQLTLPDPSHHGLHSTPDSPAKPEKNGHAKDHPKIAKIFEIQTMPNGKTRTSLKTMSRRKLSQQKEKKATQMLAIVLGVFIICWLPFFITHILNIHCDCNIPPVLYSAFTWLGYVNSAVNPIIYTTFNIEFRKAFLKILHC

HTR1B = HTR1B (Homo sapiens, UniProt P28222); assay: LANCE Ultra cAMP assay
Sequence of HTR1B (P28222 whole entry): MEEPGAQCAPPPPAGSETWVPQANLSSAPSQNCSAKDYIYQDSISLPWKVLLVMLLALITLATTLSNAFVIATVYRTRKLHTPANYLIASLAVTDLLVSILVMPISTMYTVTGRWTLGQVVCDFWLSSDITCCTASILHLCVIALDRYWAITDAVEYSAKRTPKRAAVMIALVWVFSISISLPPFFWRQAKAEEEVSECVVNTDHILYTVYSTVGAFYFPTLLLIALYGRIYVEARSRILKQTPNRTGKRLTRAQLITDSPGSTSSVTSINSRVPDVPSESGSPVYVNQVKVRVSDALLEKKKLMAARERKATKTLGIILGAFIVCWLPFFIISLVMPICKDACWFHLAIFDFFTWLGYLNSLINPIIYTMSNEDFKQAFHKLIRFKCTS

[2] = female, Sprague-Dawley, rat, in vivo, 100 mg/kg/day, 14 days
[3] = male, Sprague-Dawley, rat, in vivo, 100 mg/kg/day, 14 days

T1 sequence (P25100 whole entry, species assumed): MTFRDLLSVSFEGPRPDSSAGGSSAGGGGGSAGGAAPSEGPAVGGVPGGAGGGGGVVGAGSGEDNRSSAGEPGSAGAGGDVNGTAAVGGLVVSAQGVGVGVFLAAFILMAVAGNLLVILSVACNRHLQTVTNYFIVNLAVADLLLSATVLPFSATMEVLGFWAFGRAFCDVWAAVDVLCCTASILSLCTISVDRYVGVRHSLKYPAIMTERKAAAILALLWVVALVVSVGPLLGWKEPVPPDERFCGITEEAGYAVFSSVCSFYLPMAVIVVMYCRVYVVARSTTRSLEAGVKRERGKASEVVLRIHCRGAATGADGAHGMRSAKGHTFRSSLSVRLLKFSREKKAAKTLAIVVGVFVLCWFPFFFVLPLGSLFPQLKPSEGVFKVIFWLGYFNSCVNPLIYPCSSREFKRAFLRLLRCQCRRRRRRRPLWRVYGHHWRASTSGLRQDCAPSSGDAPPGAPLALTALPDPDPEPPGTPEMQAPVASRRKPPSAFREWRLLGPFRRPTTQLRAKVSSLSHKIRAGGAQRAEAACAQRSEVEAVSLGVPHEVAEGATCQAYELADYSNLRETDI

C[C@H](NC(=O)c1c(Cc2ccc(F)cc2)sc2c1CCOC2)c1ccc(C(=O)O)cc1 [TP-16]
IC50 (ADRA1D): > 10 µM
IC50 (HRH1): > 10 µM
Nasal cavity: Normal ([1]; female rats, 100 mg/kg/day, 14 days): 3/3
Brain: Normal [1, 2]: 3/3
Cervical lymph node: Normal [1, 2]: 3/3
Colon: Normal [1, 2]: 3/3
Duodenum: Normal [1, 2]: 3/3
Esophagus: Normal [1, 2]: 3/3
Eye: Normal [1, 2]: 3/3
Femur/Bone marrow: Normal [1, 2]: 3/3
Harderian gland: Normal [1, 2]: 3/3
Heart: Normal [1, 2]: 3/3
Ileum: Normal [1, 2]: 3/3
Jejunum: Normal [1, 2]: 3/3
Kidney: Normal [1, 2]: 3/3
Liver: Normal [1, 2]: 3/3
Lung: Normal [1, 2]: 3/3
Mesenteric lymph node: Normal [1, 2]: 3/3
Ovary: Normal [1, 2]: 3/3
Pancreas: Normal [1, 2]: 3/3
Parathyroid gland: Normal [1, 2]: 3/3
Pituitary gland: Normal [1, 2]: 3/3
Preputial/Clitoral gland: Normal [1, 2]: 3/3
Rectum: Normal [1, 2]: 3/3
Salivary gland: Normal [1, 2]: 3/3
Skin/ Mammary gland: Normal [1, 2]: 3/3
Spleen: Normal [1, 2]: 3/3
Stomach: Normal [1, 2]: 3/3
Testis: Normal [1, 2]: 3/3
Thymus: Normal [1, 2]: 3/3
Thyroid gland: Normal [1, 2]: 3/3
Trachea: Normal [1, 2]: 3/3
Urinary bladder: Normal [1, 2]: 3/3
Uterus: Normal [1, 2]: 3/3
Vagina: Normal [1, 2]: 3/3
Nasal cavity: Normal ([1]; male rats, 100 mg/kg/day, 14 days): 3/3
Brain: Normal [1, 3]: 3/3
Cervical lymph node: Normal [1, 3]: 3/3
Colon: Normal [1, 3]: 3/3
Duodenum: Normal [1, 3]: 3/3
Epididymis: Normal [1, 3]: 3/3
Esophagus: Normal [1, 3]: 3/3
Eye: Normal [1, 3]: 3/3
Femur/Bone marrow: Normal [1, 3]: 3/3
Harderian gland: Normal [1, 3]: 3/3
Heart: Normal [1, 3]: 3/3
Ileum: Normal [1, 3]: 3/3
Jejunum: Normal [1, 3]: 3/3
Kidney: Normal [1, 3]: 3/3
Liver: Normal [1, 3]: 3/3
Lung: Normal [1, 3]: 3/3
Mesenteric lymph node: Normal [1, 3]: 3/3
Pancreas: Normal [1, 3]: 3/3
Parathyroid gland: Normal [1, 3]: 3/3
Pituitary gland: Normal [1, 3]: 3/3
Preputial/Clitoral gland: Normal [1, 3]: 3/3
Prostate: Normal [1, 3]: 3/3
Rectum: Normal [1, 3]: 3/3
Salivary gland: Normal [1, 3]: 3/3
Seminal vesicle: Normal [1, 3]: 3/3
Skin/ Mammary gland: Normal [1, 3]: 3/3
Spleen: Normal [1, 3]: 3/3
Stomach: Normal [1, 3]: 3/3
Testis: Normal [1, 3]: 3/3
Thymus: Normal [1, 3]: 3/3
Thyroid gland: Normal [1, 3]: 3/3
Trachea: Normal [1, 3]: 3/3
Urinary bladder: Normal [1, 3]: 3/3
body weight during 14-day treatment ([1]; rat, in vivo, po, 100 mg/kg): without statistically significant weight loss
hematological analysis, overall finding ([1]; rat, in vivo, po, 100 mg/kg): no adverse changes
organ morphology, overall finding ([1]; rat, in vivo, po, 100 mg/kg): no abnormalities
%TGI (Pan02 tumors): 44.0%
IL-4/PGE2-induced phosphorylation of STAT3 and AKT (STAT3 and AKT signaling): significantly reversed
IC50 (AODRA1): > 10 µM
IC50 (DRD2): > 10 µM
IC50 (HTR1B): > 10 µM
